In PubChem BioAssay AID328 (DTP/NCI, 2004):
Where “and” joins values, the source holds several entries; their conditions need not be identical. Equal entries are not always repeated. Inconclusive results and toxic doses are left out.

Tested on: BDF1 mice, P388 leukemia ip, median survival T/C
Test: NCI In Vivo Anticancer Drug Screen. Data for tumor model P388 Leukemia (intraperitoneal) in B6D2F1 (BDF1) mice
Details: endpoint: median survival time, higher = longer survival
Procedure, shortened: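 In tumour-bearing mice, survival after compound treatment is set against the vehicle group and given as a quotient.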

[1] = dose: 100.0 mg/kg/injection, schedule: Q01DX009 (ip), vehicle: saline with Tween-80
[2] = dose: 6.25 mg/kg/injection, schedule: Q01DX009 (ip), vehicle: saline
[3] = dose: 12.5 mg/kg/injection, schedule: Q01DX009 (ip), vehicle: saline
[4] = dose: 50.0 mg/kg/injection, schedule: Q04DX003 (ip), vehicle: water
[5] = dose: 100.0 mg/kg/injection, schedule: Q04DX003 (ip), vehicle: water
[6] = dose: 200.0 mg/kg/injection, schedule: Q04DX003 (ip), vehicle: water
[7] = dose: 400.0 mg/kg/injection, schedule: Q04DX003 (ip), vehicle: water
[8] = dose: 6.25 mg/kg/injection, schedule: Q01DX009 (ip), vehicle: saline with Tween-80
[9] = dose: 12.5 mg/kg/injection, schedule: Q01DX009 (ip), vehicle: saline with Tween-80
[10] = dose: 12.5 mg/kg/injection, schedule: Q04DX003 (ip), vehicle: saline with Tween-80
[11] = dose: 25.0 mg/kg/injection, schedule: Q01DX009 (ip), vehicle: saline with Tween-80
[12] = dose: 25.0 mg/kg/injection, schedule: Q04DX003 (ip), vehicle: saline with Tween-80
[13] = dose: 50.0 mg/kg/injection, schedule: Q01DX009 (ip), vehicle: saline with Tween-80
[14] = dose: 50.0 mg/kg/injection, schedule: Q04DX003 (ip), vehicle: saline with Tween-80
[15] = dose: 25.0 mg/kg/injection, schedule: Q01DX009 (ip), vehicle: saline
[16] = dose: 50.0 mg/kg/injection, schedule: Q01DX009 (ip), vehicle: saline
[17] = dose: 6.25 mg/kg/injection, schedule: Q04DX003 (ip), vehicle: saline
[18] = dose: 12.5 mg/kg/injection, schedule: Q04DX003 (ip), vehicle: saline
[19] = dose: 25.0 mg/kg/injection, schedule: Q04DX003 (ip), vehicle: saline
[20] = dose: 100.0 mg/kg/injection, schedule: Q01DX009 (ip), vehicle: saline
[21] = dose: 100.0 mg/kg/injection, schedule: Q04DX003 (ip), vehicle: saline
[22] = dose: 200.0 mg/kg/injection, schedule: Q04DX003 (ip), vehicle: saline
[23] = dose: 400.0 mg/kg/injection, schedule: Q04DX003 (ip), vehicle: saline

## CC(=O)C[n+]1ccccc1C(c1ccccc1)c1ccccc1
dose: 12.5 mg/kg/injection, schedule: Q01DX005 (ip), vehicle: saline
  T/C: 101 % of control
dose: 25.0 mg/kg/injection, schedule: Q01DX005 (ip), vehicle: saline
  T/C: 92 % of control
dose: 50.0 mg/kg/injection, schedule: Q01DX005 (ip), vehicle: saline
  T/C: 101 % of control

## O=C1c2ccccc2C(=Cc2ccccc2)c2ccccc21
[1]
  T/C: 118 % of control
dose: 200.0 mg/kg/injection, schedule: Q01DX009 (ip), vehicle: saline with Tween-80
  T/C: 100 % of control
dose: 400.0 mg/kg/injection, schedule: Q01DX009 (ip), vehicle: saline with Tween-80
  T/C: 113 % of control

## CCCCCCCCCCC[N+](C)(C)CC(O)C[N+](C)(C)CCCCCCCCCCC
dose: 3.13 mg/kg/injection, schedule: Q01DX009 (ip), vehicle: saline
  T/C: 102 % of control
[2]
  T/C: 111 % of control
[3]
  T/C: 118 % of control

## CCCCNC(C)C1(O)Cc2c(O)c3c(c(O)c2C(OC2CC(N)C(O)C(C)O2)C1)C(=O)c1c(OC)cccc1C3=O (stereo unspecified)
dose: 10.0 mg/kg/injection, schedule: Q01DX009 (ip), vehicle: water
  T/C: 157 % of control
dose: 20.0 mg/kg/injection, schedule: Q01DX009 (ip), vehicle: water
  T/C: 168 % of control
dose: 25.0 mg/kg/injection, schedule: Q04DX003 (ip), vehicle: water
  T/C: 116 % of control
dose: 40.0 mg/kg/injection, schedule: Q01DX009 (ip), vehicle: water
  T/C: 185 % of control
[4]
  T/C: 114 % of control
[5]
  T/C: 105 % of control
[6]
  T/C: 151 % of control
[7]
  T/C: 118 % of control

## CCOC(=O)C(CCSC(C)=O)SC(C)=O (stereo unspecified)
[8]
  T/C: 96 % of control
[9]
  T/C: 122 % of control
[10]
  T/C: 111 % of control
[11]
  T/C: 114 % of control
[12]
  T/C: 115 % of control
[13]
  T/C: 104 % of control
[14]
  T/C: 109 % of control and 111 % of control

## Cc1ccc2c(c1)C(=O)CCS2
dose: 100.0 mg/kg/injection, schedule: Q04DX003 (ip), vehicle: Klucel (hydroxypropylcellulose) (HPC)
  T/C: 100 % of control
dose: 200.0 mg/kg/injection, schedule: Q04DX003 (ip), vehicle: Klucel (hydroxypropylcellulose) (HPC)
  T/C: 100 % of control
dose: 400.0 mg/kg/injection, schedule: Q04DX003 (ip), vehicle: Klucel (hydroxypropylcellulose) (HPC)
  T/C: 100 % of control

## CC1CC(C)(O)C2C3(C)CCCC2(COC3=O)C12CCC1(CCOC1=O)O2 (stereo unspecified)
dose: 2.5 mg/kg/injection, schedule: Q01DX009 (ip), vehicle: Klucel (hydroxypropylcellulose) (HPC)
  T/C: 88 % of control
dose: 5.0 mg/kg/injection, schedule: Q01DX009 (ip), vehicle: Klucel (hydroxypropylcellulose) (HPC)
  T/C: 106 % of control
dose: 10.0 mg/kg/injection, schedule: Q01DX009 (ip), vehicle: Klucel (hydroxypropylcellulose) (HPC)
  T/C: 95 % of control

## CCCCCCCCCC[N+]1([O-])CCCCC1
[3]
  T/C: 98 % of control
[15]
  T/C: 91 % of control
[16]
  T/C: 94 % of control

## NC(CSCc1ccccc1)(CSCc1ccccc1)C(=O)O
dose: 12.5 mg/kg/injection, schedule: Q01DX009 (ip), vehicle: other
  T/C: 103 % of control
dose: 25.0 mg/kg/injection, schedule: Q01DX009 (ip), vehicle: other
  T/C: 122 % of control
dose: 50.0 mg/kg/injection, schedule: Q01DX009 (ip), vehicle: other
  T/C: 97 % of control and 110 % of control
dose: 100.0 mg/kg/injection, schedule: Q01DX009 (ip), vehicle: other
  T/C: 117 % of control
dose: 200.0 mg/kg/injection, schedule: Q01DX009 (ip), vehicle: other
  T/C: 96 % of control
dose: 400.0 mg/kg/injection, schedule: Q01DX009 (ip), vehicle: other
  T/C: 94 % of control

## CCCCCCCCCCCCCCCCSc1ccc(C)cc1
dose: 5.0 mg/kg/injection, schedule: Q04DX003 (ip), vehicle: saline sonified
  T/C: 105 % of control
dose: 10.0 mg/kg/injection, schedule: Q04DX003 (ip), vehicle: saline sonified
  T/C: 105 % of control
dose: 20.0 mg/kg/injection, schedule: Q04DX003 (ip), vehicle: saline sonified
  T/C: 100 % of control
dose: 200.0 mg/kg/injection, schedule: Q04DX003 (ip), vehicle: other
  T/C: 100 % of control
dose: 400.0 mg/kg/injection, schedule: Q04DX003 (ip), vehicle: other
  T/C: 100 % of control

## O=c1oc2ccccc2c(O)c1C(C/C(=N/O)c1ccccc1)c1ccccc1 (stereo unspecified)
[8]
  T/C: 99 % of control
dose: 6.25 mg/kg/injection, schedule: Q04DX003 (ip), vehicle: saline with Tween-80
  T/C: 100 % of control and 101 % of control
[9]
  T/C: 94 % of control
[10]
  T/C: 92 % of control and 107 % of control
[11]
  T/C: 93 % of control
[12]
  T/C: 105 % of control and 108 % of control
[14]
  T/C: 95 % of control and 110 % of control
dose: 100.0 mg/kg/injection, schedule: Q04DX003 (ip), vehicle: saline with Tween-80
  T/C: 102 % of control

## COc1c2c(c3c(c1OC)c(=O)c1ccccc1n3C)OCO2
dose: 45.0 mg/kg/injection, schedule: Q01DX010 (ip), vehicle: carboxymethylcellulose (CMC)
  T/C: 90 % of control
dose: 90.0 mg/kg/injection, schedule: Q01DX010 (ip), vehicle: carboxymethylcellulose (CMC)
  T/C: 104 % of control
dose: 180.0 mg/kg/injection, schedule: Q01DX010 (ip), vehicle: carboxymethylcellulose (CMC)
  T/C: 95 % of control

## O=C(O)CN=Cc1ccccc1O.O=C(O)CN=Cc1ccccc1O.[Fe]
[8]
  T/C: 100 % of control
[2]
  T/C: 106 % of control
[17]
  T/C: 100 % of control
[9]
  T/C: 100 % of control
[3]
  T/C: 115 % of control
[18]
  T/C: 100 % of control
[11]
  T/C: 100 % of control and 110 % of control
[15]
  T/C: 90 % of control
[12]
  T/C: 100 % of control
[19]
  T/C: 95 % of control
[13]
  T/C: 100 % of control
[16]
  T/C: 86 % of control
[14]
  T/C: 86 % of control

## CCCCCCCS(=O)CCCCCCC
[8]
  T/C: 102 % of control
[9]
  T/C: 104 % of control
[11]
  T/C: 95 % of control
[13]
  T/C: 104 % of control

## CC(C)c1ccccc1OS(=O)(=O)c1c(F)c(F)c(F)c(F)c1F
dose: 6.25 mg/kg/injection, schedule: Q01DX001 (ip), vehicle: saline with Tween-80
  T/C: 104 % of control
dose: 12.5 mg/kg/injection, schedule: Q01DX001 (ip), vehicle: saline with Tween-80
  T/C: 109 % of control
dose: 25.0 mg/kg/injection, schedule: Q01DX001 (ip), vehicle: saline with Tween-80
  T/C: 118 % of control

## CC(=O)n1ncc2ccc(N)cc21
dose: 25.0 mg/kg/injection, schedule: Q01DX009 (ip), vehicle: water
  T/C: 94 % of control
dose: 50.0 mg/kg/injection, schedule: Q01DX009 (ip), vehicle: water
  T/C: 96 % of control
[4]
  T/C: 103 % of control
dose: 100.0 mg/kg/injection, schedule: Q01DX009 (ip), vehicle: water
  T/C: 102 % of control
[5]
  T/C: 103 % of control
dose: 200.0 mg/kg/injection, schedule: Q01DX009 (ip), vehicle: water
  T/C: 99 % of control
[6]
  T/C: 101 % of control
[7]
  T/C: 120 % of control

## CC(CS(=O)(=O)O)NC(CO)(CO)CO (stereo unspecified)
[20]
  T/C: 87 % of control
[21]
  T/C: 100 % of control
[22]
  T/C: 109 % of control
dose: 400.0 mg/kg/injection, schedule: Q01DX009 (ip), vehicle: saline
  T/C: 100 % of control
[23]
  T/C: 90 % of control

## C1CN2CCC1C1(C2)SSC2(CN3CCC2CC3)S1 (stereo unspecified)
[17]
  T/C: 100 % of control
[18]
  T/C: 105 % of control
[19]
  T/C: 100 % of control

## CCN(CC)CCOC(=O)c1ccc(NC(=O)Nc2ccc(C(=O)OCCN(CC)CC)cc2)cc1
[1]
  T/C: 119 % of control

## CC(C)(S)C(N)C(=O)O (stereo unspecified)
[16]
  T/C: 86 % of control
[20]
  T/C: 90 % of control
[21]
  T/C: 91 % of control
dose: 200.0 mg/kg/injection, schedule: Q01DX009 (ip), vehicle: saline
  T/C: 90 % of control
[22]
  T/C: 91 % of control
[23]
  T/C: 100 % of control

## O=C1OCCN1/N=C\c1ccccc1
dose: 100.0 mg/kg/injection, schedule: Q01DX001 (ip), vehicle: olive oil, sesame oil, peanut oil
  T/C: 95 % of control
dose: 200.0 mg/kg/injection, schedule: Q01DX001 (ip), vehicle: olive oil, sesame oil, peanut oil
  T/C: 104 % of control
dose: 400.0 mg/kg/injection, schedule: Q01DX001 (ip), vehicle: olive oil, sesame oil, peanut oil
  T/C: 104 % of control
